Tests used:
[1] = tested on: U87 glioma xenograft cuboids; assay: On-device aptasensor monitoring of CytC secretion from drug-treated cuboids; format: cell-based; conditions: for CytC level vs control: 12 to 48 hrs
Procedure: Ex-vivo monitoring of CytC from microdissected tumor tissues after drug treatment in culture using the aptasensor platform. The sensor platform's ability to quantify CytC secretion from cuboids was evaluated at different time points during an extended culture period (48 hrs). Cuboids from human U87 glioma cell-derived tumors grown in athymic nude mice were prepared. After overnight culture in a 96-well plate to allow recovery from tissue damage due to the cutting procedure, the cuboids were transferred onto the sensor platform for measurement. To prevent random adhesion of the cuboids to the sensor surface and improve the precise localization of CytC secretion detection, the cuboids were encapsulated in a hydrogel. They were mixed with hydrogel before transferring onto the sensors and immobilizing them to a restricted area just above the working electrode (FIGS. 5A-5B). […] Encapsulation of cells in hydrogels in close proximity to the WE also generates a more localized and distinguishable electrochemical response. Hydrogels can be used as a protective layer to ensure the long-term stability of aptasensors. A polysaccharide hydrogel (Cellink, Bioink, Boston, USA) that contains nanofibrillar cellulose and sodium alginate was used. […] It was also observed that the performance of the sensors remained unhindered regardless of the hydrogel concentration, apart from an extension of the reaction time to approximately 30 min. […] Next, the sensor platform's ability to measure CytC secretion from cuboids in response to exposure to cytotoxic drugs was evaluated. Initially, the baseline signal was measured with the encapsulated cuboids on the WE before exposing U87 cuboids to different concentrations of cisplatin (a cytotoxic chemotherapy drug, FIG. 5C), sepantronium bromide, (YM-155, a survivin inhibitor and potential anti-cancer drug, FIG. 5D), and mocetinostat (MOC, a histone deacetylases inhibitor cancer drug, FIG. 5E) for 48 hrs. […] These observations were consistent with fluorescence-based findings and agreed with the sensor-based responses. […]

[2] = tested on: U87 glioma xenograft cuboids; assay: Terminal SYTOX green dead stain fluorescence of cuboids; format: cell-based; conditions: 48 hrs

SMILES | CytC production rate vs DMSO control ([1]; 10 μM MOC, 48 hrs, not statistically significant) | SG dead stain fluorescence vs DMSO control ([2]; 10 μM MOC) | CytC level vs control ([1]; 30 μM cisplatin) | CytC level vs control ([1]; 100 μM cisplatin) | SG dead stain fluorescence vs control ([2]; 30 μM cisplatin) | SG dead stain fluorescence vs control ([2]; 100 μM cisplatin)
Nc1ccccc1NC(=O)c1ccc(CNc2nccc(-c3cccnc3)n2)cc1 [MOC, mocetinostat] | higher average CytC production rate than the DMSO control | slightly elevated SG dead stain fluorescence | – | – | – | –
N.N.[Cl][Pt][Cl] [cisplatin] | – | – | higher CytC level compared to the control | highest levels of CytC | higher SG dead stain fluorescence | higher SG dead stain fluorescence

Reference: patent US20240369511A1, “INTEGRATED ELECTROCHEMICAL APTASENSORS FOR MEASURING CELL DEATH AND CYTOKINE ACTIVITY FROM INTACT TISSUE SAMPLES” (University of Washington, priority 2023, published 2024)
